Key:
folate receptor (FR) = molecular target: T1, folate receptor (FR) (Homo sapiens, UniProt P15328); design: method as in PMID 34251183; conditions: IGROV-1 cells; read-out: KD Value (95% CI); cited from earlier work
T1 construct: endogenous in cells; host or cells: IGROV-1 (human ovarian carcinoma cell line), intact cells on ice

[1] = tested on: mouse serum albumin (MSA) in mouse blood plasma; test: Ultrafiltration albumin-binding assay of 177Lu-DOTA-ALBs, mouse blood plasma
Procedure: The relative affinities of ^177Lu-labeled DOTA-ALBs (50 MBq/nmol) to albumin in mouse and human blood plasma were determined using an ultrafiltration assay according to a previously described procedure (Supplementary Materials Section S5). A dry chemistry analyzer (DRI-CHEM 4000i, FUJIFILM, Japan) was used to determine the mouse serum albumin concentration (conc. MSA: ~550 µM) in mouse blood plasma (Rockland Immunochemicals, Inc., Pottstown, PA, USA, Lot No. 23248) and the human serum albumin concentration (conc. HSA: ~800 µM) in human blood plasma of a healthy volunteer (Stiftung Blutspende SRK Aargau-Solothurn, Aarau, Switzerland). The albumin-bound fraction of the radioligands was determined at variable molar concentration ratios of serum albumin to the respective radiolabeled DOTA-ALB using a blood plasma/PBS dilution series and a constant amount of ^177Lu-DOTA-ALBs (0.5 MBq; 0.01 nmol). The free (albumin-unbound) radioligand fraction was separated from the albumin-bound fraction using Centrifree filter devices (cut-off 10 kDa; Merck Millipore, Carrigtwohill, Ireland) to enable the calculation of the percentage of albumin-bound radioligand. […] The results were presented as average ± standard deviation (SD) of 3 independent experiments. […]
S5. Relative Albumin-binding Properties of 177Lu-DOTA-ALBs
Purpose: The relative albumin-binding affinities of the 177Lu-DOTA-ALBs were in-vestigated using mouse and human blood plasma.
Methods: Relative binding affinities of 177Lu-DOTA-ALBs to mouse (MSA) and hu-man (HSA) serum albumin in the respective blood plasma were determined using an ul-trafiltration assay according to a previously described procedure. In brief, an average MSA concentration of ⁓550 µM was measured for mouse blood plasma (Rockland Immu-nochemicals, Inc., Pottstown, PA, USA, Lot N° 23248), while an HSA concentration of ⁓800 µM was determined for human blood plasma (Stiftung Blutspende SRK Aargau-Solothurn, Aarau, Switzerland) using a dry chemistry analyzer (DRI-CHEM 4000i, FUJI-FILM, Japan). A fixed amount of the respective 177Lu-DOTA-ALB (50 MBq/nmol:, ~500 kBq, 25 µL, 0.01 nmol) was added to a defined volume (250 µL) of mouse and human […]
and 0.01 to 20000, respectively. […]
off 10 kDa; Merck Millipore, Carrigtwohill, Ireland). The albumin-bound fractions at the […]
the half-maximum binding (B50). The relative albumin-binding affinities were defined as […]
sented as average ± SD of 3 independent experiments.
Results: The results are reported in the main article.
S6. Blood Clearance of 177Lu-DOTA-ALBs […]
their blood clearance profile.
Blood clearance of 177Lu-labeled DOTA-ALBs were determined in n=3–6 mice per radioligand. The radiolabeled DOTA-ALBs ( […]
various timepoints over the following 48 h. […]
up to 3 and 7 days, respectively. […]

T1 sequence (P15328 25-257): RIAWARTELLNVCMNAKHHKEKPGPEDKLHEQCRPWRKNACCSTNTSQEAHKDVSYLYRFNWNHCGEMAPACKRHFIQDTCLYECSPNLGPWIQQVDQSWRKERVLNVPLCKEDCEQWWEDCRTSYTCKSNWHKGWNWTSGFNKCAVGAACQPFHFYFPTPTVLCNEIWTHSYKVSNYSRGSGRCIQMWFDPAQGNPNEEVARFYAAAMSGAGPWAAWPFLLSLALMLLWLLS

| Compound | Kd (folate receptor (FR)) | Fold higher albumin-binding affinity than [177Lu]Lu-DOTA-ALB-24 [1] | further results |
| --- | --- | --- | --- |
| CN1c2c(nc(N)[nH]c2=O)NC[C@H]1CNc1ccc(C(=O)N[C@@H](CCC(=O)N[C@@H](CCCCNC(=O)CN2CCN(CC(=O)O)CCN(CC(=O)O)CCN(CC(=O)O)CC2)C(=O)N[C@@H](CCCCNC(=O)CCCc2ccc(I)cc2)C(=O)O)C(=O)O)cc1 [[^177Lu]Lu-6R-RedFol-1, metal not drawn] | 2.6 nM |  |  |
| CN1c2c(nc(N)[nH]c2=O)NCC1CNc1ccc(C(=O)NC(CCC(=O)NC(CCCCNC(=O)CN2CCN(CC(=O)[O-])CCN(CC(=O)[O-])CCN(CC(=O)[O-])CC2)C(=O)NC(CCCCNC(=O)CCCc2ccc(I)cc2)C(=O)O)C(=O)O)cc1.[177Lu+3] (stereo not drawn) [[^177Lu]Lu-6S-RedFol-1] | 1.7 nM |  |  |
| O=C(O)CN1CCN(CC(=O)O)CCN(CC(=O)NCCC(=O)N[C@@H](CCCCNC(=O)CCCc2ccc(I)cc2)C(=O)O)CCN(CC(=O)O)CC1.[177Lu] [[^177Lu]Lu-DOTA-ALB-1] |  | ~ 3 fold |  |
| O=C(O)CN1CCN(CC(=O)O)CCN(CC(=O)NCCC(=O)N[C@@H](CCCCNC(=O)c2ccc(CNC(=O)CCCc3ccc(I)cc3)cc2)C(=O)O)CCN(CC(=O)O)CC1.[177Lu] [[^177Lu]Lu-DOTA-ALB-3] |  |  | Fold increased albumin-binding affinity relative to [177Lu]Lu-DOTA-ALB-1 [1]: ~ 15 fold; Fold stronger albumin-binding affinity than [177Lu]Lu-DOTA-ALB-25 [1]: ~ 10 fold |
| O=C(O)CN1CCN(CC(=O)O)CCN(CC(=O)NCCC(=O)N[C@@H](CCCCNC(=O)c2ccc(CNC(=O)CCCCc3ccc(I)cc3)cc2)C(=O)O)CCN(CC(=O)O)CC1.[177Lu] [[^177Lu]Lu-DOTA-ALB-25] |  | ~ 5 fold |  |

Source: publication PMC10486429, “Investigations Using Albumin Binders to Modify the Tissue Distribution Profile of Radiopharmaceuticals Exemplified with Folate Radioconjugates” (Cancers, 2023)
